Source: patent US12419874B2, “GLP-1R agonist compound and use thereof” (Chongqing Pharmaceutical Research Institute Co., Ltd., priority 2024, dated 2025)

Experiments:
GLP-1R [1] = target: T1, GLP-1R (Homo sapiens, UniProt P43220); assay: GLP-1R agonistic activity by One-Lite luciferase assay in HEK293-GLP-1R-luc cells (Example 59); assay type: cell-based; settings: 6 h incubation, read-out: cAMP EC50
Experimental: (§1) The agonistic activities of the compounds of the present disclosure on GLP-1R were evaluated by detecting the generation of cAMP.
• (1) Cell line: HEK293-GLP-1R-luc Stable Cell Line (Cobioer, CBP71117); • (2) Culture medium: DMEM+10% FBS (Gibco); • (3) Kit: One-Lite™ kit Luciferase Assay System (Vazyme). 2. Experimental Procedures • (1) HEK293-GLP1R cells were inoculated in a 96-well plate at a density of 30000 cells per well; • (2) 10× working solution of each compound was formulated; • (3) 10 μL of 10× working solution of each compound was added to corresponding well and incubated at 37° C. for 6 h; • (4) 100 μL of One-Lite Luciferase Assay Substrate formulated using One-Lite Luciferase Assay Buffer was added to each well; • (5) The plate was incubated at room temperature for 3 min; • (6) The plate was read by a multimode microplate reader to detect chemiluminescence. 3. Data Analysis • (1) % Activity was calculated by the following formula: % Activity=100−(Signalcmpd−SignalAve-PC)/(SignalAve-VC−SignalAve-PC)×100 • (2) The dose-response curve was plotted to calculate EC50: Y=Bottom+(Top−Bottom)/(1+10^(Log EC50−X)*HillSlope)) • X: log of agonist concentration; Y: Activity. 4. Experimental Results

[2] = In vivo pharmacokinetics in rats, oral; parameters: species or system SD rats; settings: for AUC(0-t) / Cmax / half-life: rat, plasma, SD rats, PO, 1 mg/kg
Experimental: The compounds of the present disclosure were formulated with […]+90% 100 mM glycine-64 mM NaOH, and orally administered to fasted SD rats at a dose of 1 mg/kg or 5 mg/kg, respectively. At different time points (0.25, 0.5, 1.0, 2.0, 4.0, 5.0, 6.0, 7.0, 8.0, and 24 h) after administration, about 50 μL of blood samples were collected from veins into anticoagulant tubes containing EDTA-K2, and centrifuged to separate plasma. The plasma concentrations of the compounds were determined by LC-MS/MS. WinNonlin was used to calculate the pharmacokinetic parameters by using the non-compartmental analysis, and the experimental results were listed in Table 9.

GLP-1R [3] = target: T1, GLP-1R; assay: GLP-1R agonistic activity by cAMP detection kit in HEK293-GLP-1R-luc cells (Example 58); assay type: cell-based; settings: 30 min incubation
Experimental: as §1
• (1) Cell line: HEK293-GLP-1R-luc Stable Cell Line (Cobioer, CBP71117); • (2) Culture medium: DMEM+10% FBS (Gibco); • (3) Kit: cAMP detection kit (PerkinElmer). 2. Experimental Procedures • (1) HEK293-GLP1R cells were inoculated in a 384-well plate at a density of 2000 cells per well; • (2) 4× working solution of each compound was formulated; • (3) 5 μL of 4× working solution of each compound was added to corresponding well and incubated at 37° C. for 30 min; • (4) 10 μL of Eu-cAMP tracer diluted with Lysis Buffer (1/50) was added to each well; • (5) 10 μL of Ulight-anti-cAMP diluted with Lysis Buffer (1/150) was added to each well; • (6) The plate was incubated at room temperature for 1 h; • (7) The plate was read by a multimode microplate reader (excitation wavelength: 320 nm; emission wavelength: 665 nm and 620 nm). 3. Data Analysis • (1) % Activity was calculated by the following formula: % Activity=100−(Signalcmpd−SignalAve-PC)/(SignalAve-VC−SignalAve-PC)×100 • (2) The dose-response curve was plotted to calculate EC50: Y=Bottom+(Top−Bottom)/(1+10^(Log EC50−X)*HillSlope)) • X: log of agonist concentration; Y: Activity. 4. Experimental Results

[4] = rats, oral, versus example compound 67 in WO2018056453, in words

T1 sequence (P43220 24-463): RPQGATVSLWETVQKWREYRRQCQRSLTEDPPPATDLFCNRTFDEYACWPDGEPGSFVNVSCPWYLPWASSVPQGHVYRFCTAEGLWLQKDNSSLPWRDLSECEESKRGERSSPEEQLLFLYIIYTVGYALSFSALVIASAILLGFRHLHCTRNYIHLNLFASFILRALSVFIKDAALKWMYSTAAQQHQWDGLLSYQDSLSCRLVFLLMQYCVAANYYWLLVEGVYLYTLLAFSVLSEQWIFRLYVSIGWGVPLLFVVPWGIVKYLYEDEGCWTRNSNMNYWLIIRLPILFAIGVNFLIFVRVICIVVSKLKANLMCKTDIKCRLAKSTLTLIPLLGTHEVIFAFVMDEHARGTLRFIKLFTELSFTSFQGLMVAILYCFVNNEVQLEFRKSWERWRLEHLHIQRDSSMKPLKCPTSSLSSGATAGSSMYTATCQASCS

EC50 (GLP-1R [1]) [µM] | SMILES | other results
≤ 0.02 | Cc1cc(-n2nc3c(c2-n2ccn(-c4ccc5c(cnn5C)c4F)c2=O)[C@H](C)N(C(=O)c2cc4cc([C@H]5CCOC(C)(C)C5)ccc4n2[C@@]2(c4noc(=O)[nH]4)C[C@@H]2C)CC32C[C@H]2C)cc(C)c1F (stereo partly drawn) [Compound 226] | AUC(0-t) [2]: 1480 ng·h/mL; Cmax [2]: 160 ng/mL; half-life [2]: 9.3 h
≤ 0.02 | Cc1cc(-n2nc3c(c2-n2ccn(-c4ccc5c(cnn5C)c4F)c2=O)[C@H](C)N(C(=O)c2cc4cc([C@H]5CCOC(C)(C)C5)ccc4n2[C@@]2(c4noc(=O)[nH]4)C[C@@H]2C)CC32CCNCC2)cc(C)c1F [Compound 57] | EC50 (GLP-1R [3]): ≤ 0.0001 µM
≤ 0.02 | Cc1cc(-n2nc3c(c2-n2ccn(-c4ccc5c(cnn5C)c4F)c2=O)[C@H](C)N(C(=O)c2cc4cc([C@H]5CCOC(C)(C)C5)ccc4n2[C@@]2(c4noc(=O)[nH]4)C[C@@H]2C)CC32CC(OC(F)F)C2)cc(C)c1F (stereo partly drawn) [Compound 194] | –
≤ 0.02 | C=C1CC2(C1)CN(C(=O)c1cc3cc([C@H]4CCOC(C)(C)C4)ccc3n1[C@@]1(c3noc(=O)[nH]3)C[C@@H]1C)[C@@H](C)c1c2nn(-c2cc(C)c(F)c(C)c2)c1-n1ccn(-c2ccc3c(cnn3C)c2F)c1=O [Compound 218] | AUC(0-t) [2]: 990 ng·h/mL; Cmax [2]: 110 ng/mL; half-life [2]: 11.6 h
≤ 0.02 | Cc1cc(-n2nc3c(c2-n2ccn(-c4ccc5c(cnn5C)c4F)c2=O)[C@H](C)N(C(=O)c2cc4cc([C@H]5CCOC(C)(C)C5)ccc4n2[C@@]2(c4noc(=O)[nH]4)C[C@@H]2C)CC32CC(O)C2)cc(C)c1F (stereo partly drawn) [Compound 181] | –
≤ 0.02 | COC1CC2(C1)CN(C(=O)c1cc3cc([C@H]4CCOC(C)(C)C4)ccc3n1[C@@]1(c3noc(=O)[nH]3)C[C@@H]1C)[C@@H](C)c1c2nn(-c2cc(C)c(F)c(C)c2)c1-n1ccn(-c2ccc3c(cnn3C)c2F)c1=O (stereo partly drawn) [Compound 184] | –
≤ 0.02 | Cc1cc(-n2nc3c(c2-n2ccn(-c4ccc5c(cnn5C)c4F)c2=O)[C@H](C)N(C(=O)c2cc4cc([C@H]5CCOC(C)(C)C5)ccc4n2[C@@]2(c4noc(=O)[nH]4)C[C@@H]2C)CC32CC(OC3CC3)C2)cc(C)c1F (stereo partly drawn) [Compound 193] | –
≤ 0.02 | Cc1cc(-n2nc3c(c2-n2ccn(-c4ccc5c(cnn5C)c4F)c2=O)[C@H](C)N(C(=O)c2cc4cc([C@H]5CCOC(C)(C)C5)ccc4n2[C@@]2(c4noc(=O)[nH]4)C[C@@H]2C)CC32CCC(F)C2)cc(C)c1F (stereo partly drawn) [Compound 211] | –
≤ 0.02 | COC1CCC2(C1)CN(C(=O)c1cc3cc([C@H]4CCOC(C)(C)C4)ccc3n1[C@@]1(c3noc(=O)[nH]3)C[C@@H]1C)[C@@H](C)c1c2nn(-c2cc(C)c(F)c(C)c2)c1-n1ccn(-c2ccc3c(cnn3C)c2F)c1=O (stereo partly drawn) [Compound 210] | –
≤ 0.02 | Cc1cc(-n2nc3c(c2-n2ccn(-c4ccc5c(cnn5C)c4F)c2=O)[C@H](C)N(C(=O)c2cc4cc([C@H]5CCOC(C)(C)C5)ccc4n2[C@@]2(c4noc(=O)[nH]4)C[C@@H]2C)CC32CC(F)C2)cc(C)c1F (stereo partly drawn) [Compound 182] | –
≤ 0.02 | Cc1cc(-n2nc3c(c2-n2ccn(-c4ccc5c(cnn5C)c4F)c2=O)[C@H](C)N(C(=O)c2cc4cc([C@H]5CCOC(C)(C)C5)ccc4n2[C@@]2(c4noc(=O)[nH]4)C[C@@H]2C)CC32CC2F)cc(C)c1F (stereo partly drawn) [Compound 228] | AUC(0-t) [2]: 2400 ng·h/mL; Cmax [2]: 216 ng/mL; half-life [2]: 13 h; maximum plasma concentration Cmax compared with the control compound [2, 4]: higher; oral exposure AUC compared with the control compound [2, 4]: higher
≤ 0.02 | Cc1cc(-n2nc3c(c2-n2ccn(-c4ccc5c(cnn5C)c4F)c2=O)[C@H](C)N(C(=O)c2cc4cc([C@H]5CCOC(C)(C)C5)ccc4n2[C@@]2(c4noc(=O)[nH]4)C[C@@H]2C)CC32CS(=O)(=O)C2)cc(C)c1F [Compound 191] | –
≤ 0.02 | COC1CCC2(CC1)CN(C(=O)c1cc3cc([C@H]4CCOC(C)(C)C4)ccc3n1[C@@]1(c3noc(=O)[nH]3)C[C@@H]1C)[C@@H](C)c1c2nn(-c2cc(C)c(F)c(C)c2)c1-n1ccn(-c2ccc3c(cnn3C)c2F)c1=O (stereo partly drawn) [Compound 202] | –

Second part, the compound before the results:

SMILES | EC50 (GLP-1R [1]) [µM] | other results
Cc1cc(-n2nc3c(c2-n2ccn(-c4ccc5c(cnn5C)c4F)c2=O)[C@H](C)N(C(=O)c2cc4cc([C@H]5CCOC(C)(C)C5)ccc4n2[C@@]2(c4noc(=O)[nH]4)C[C@@H]2C)CC32CC(F)(F)C2)cc(C)c1F [Compound 180] | ≤ 0.02 | AUC(0-t) [2]: 1120 ng·h/mL; Cmax [2]: 129 ng/mL; half-life [2]: 6.4 h
Cc1cc(-n2nc3c(c2-n2ccn(-c4ccc5c(cnn5C)c4F)c2=O)[C@H](C)N(C(=O)c2cc4cc([C@H]5CCOC(C)(C)C5)ccc4n2[C@@]2(c4noc(=O)[nH]4)C[C@@H]2C)CC32CCN(C)CC2)cc(C)c1F [Compound 59] | ≤ 0.02 | EC50 (GLP-1R [3]): ≤ 0.0001 µM
Cc1cc(-n2nc3c(c2-n2ccn(-c4ccc5c(ccn5C)c4F)c2=O)[C@H](C)N(C(=O)c2cc4cc([C@H]5CCOC(C)(C)C5)ccc4n2[C@@]2(c4noc(=O)[nH]4)C[C@@H]2C)CC32CCCNC2)cc(C)c1F (single isomer, unassigned) [Compound 51-A] | ≤ 0.02 | –
Cc1cc(-n2nc3c(c2-n2ccn(-c4ccc5c(ccn5C)c4F)c2=O)[C@H](C)N(C(=O)c2cc4cc([C@H]5CCOC(C)(C)C5)ccc4n2[C@@]2(c4noc(=O)[nH]4)C[C@@H]2C)CC32CCCNC2)cc(C)c1F (single isomer, unassigned) [Compound 51-B] | ≤ 0.02 | –
C[C@H]1c2c(nn(-c3ccc(F)c(C4CC4)c3)c2-n2ccn(-c3ccc4c(cnn4C)c3F)c2=O)C2(CC2)CN1C(=O)c1cc2cc(C3CCOC(C)(C)C3)ccn2c1C1(c2noc(=O)[nH]2)CC1 (single isomer, unassigned) [Compound 186-B] | 0.02 to 0.1 | –
Cc1cc(-n2nc3c(c2-n2ccn(-c4ccc5c(cnn5C)c4F)c2=O)[C@H](C)N(C(=O)c2cc4cc(C5CCOCC5)ccc4n2[C@@]2(c4noc(=O)[nH]4)C[C@@H]2C)CC32CC2)cc(C)c1F [Compound 175] | 0.02 to 0.1 | –
Cc1cc(-n2nc3c(c2-n2ccn(-c4ccc5c(cnn5C)c4F)c2=O)[C@H](C)N(C(=O)c2cc4cc(N5CCOC(C)(C)C5)ccc4n2[C@@]2(c4noc(=O)[nH]4)C[C@@H]2C)CC32CC2)cc(C)c1F [Compound 173] | 0.02 to 0.1 | –
Cc1cc(-n2nc3c(c2-n2ccn(-c4ccc5c(cnn5C)c4F)c2=O)[C@H](C)N(C(=O)c2cc4cc([C@H]5CCOC(C)(C)C5)ccc4n2[C@@]2(c4noc(=O)[nH]4)C[C@@H]2C)CC32CCCN2)cc(C)c1F (stereo partly drawn) [Compound 31] | ≤ 0.02 | –
COCC(=O)N1CCC2(CC1)CN(C(=O)c1cc3cc([C@H]4CCOC(C)(C)C4)ccc3n1[C@@]1(c3noc(=O)[nH]3)C[C@@H]1C)[C@@H](C)c1c2nn(-c2cc(C)c(F)c(C)c2)c1-n1ccn(-c2ccc3c(cnn3C)c2F)c1=O [Compound 158] | ≤ 0.02 | –
Cc1cc(-n2nc3c(c2-n2ccn(-c4ccc5c(cnn5C)c4F)c2=O)[C@H](C)N(C(=O)c2cc4cc([C@H]5CCOC(C)(C)C5)ccc4n2[C@@]2(c4noc(=O)[nH]4)C[C@@H]2C)CC32CC=CC2)cc(C)c1F [Compound 172] | ≤ 0.02 | –
Cc1cc(-n2nc3c(c2-n2ccn(-c4ccc5c(cnn5C)c4F)c2=O)[C@H](C)N(C(=O)c2cc4cc([C@H]5CCOC(C)(C)C5)ccc4n2C2(c4noc(=O)[nH]4)CC2)CC32CC2)cc(C)c1F [Compound 169] | ≤ 0.02 | –
Cc1cc(-n2nc3c(c2-n2ccn(-c4ccc5c(cnn5C)c4F)c2=O)[C@H](C)N(C(=O)c2cc4cc([C@H]5CCOC(C)(C)C5)ccc4n2[C@@]2(c4noc(=O)[nH]4)C[C@@H]2C)CC32CC=CCC2)cc(C)c1F (stereo partly drawn) [Compound 203] | ≤ 0.02 | –
CC(=O)N1CC2(C1)CN(C(=O)c1cc3cc([C@H]4CCOC(C)(C)C4)ccc3n1[C@@]1(c3noc(=O)[nH]3)C[C@@H]1C)[C@@H](C)c1c2nn(-c2cc(C)c(F)c(C)c2)c1-n1ccn(-c2ccc3c(cnn3C)c2F)c1=O [Compound 166] | ≤ 0.02 | –
